This assay concerns NS1A functional cell-based assay, percent inhibition. Put plainly: NS1A inhibition, H1N1 influenza, cell based functional assay (AID 504329).

pIC50: −log10 of the molar value.

As a reminder, the pIC50 is the negative decadic logarithm of the IC50, by convention in mol/L.

Turning to `C#CCOCCOCCOCCNc1nc(N2CCN(C(=O)CCCCCCCCCCNC(=O)[C@H]([C@@H](C)CC)n3cc(CCCCN=C(N)N)nn3)CC2)nc(N2CCN(C(=O)CCCCCCCCCCNC(=O)[C@H](CO)n3cc(CCCCCN)nn3)CC2)n1`, the pIC50 is 4.79.
The value for `CN(C)c1ccnc2c[cH-]cc12.[Fe].c1ccc(-[c-]2[c-](-c3ccccc3)[c-](-c3ccccc3)[c-](-c3ccccc3)[c-]2-c2ccccc2)cc1` (configuration not stated) was 5.03.

The values are drawn from PubChem BioAssay AID504329 (Southern Research Specialized Biocontainment Screening …, 2011).
